Test results: PubChem BioAssay (NCI)
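These data come from cells grown in 96-well plates and exposed to compound for 48 hours at five concentrations. The concentration for 50% growth inhibition is given as GI50. TGI: concentration producing complete growth inhibition.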 Where a SMILES comes first, the peptide text is derived from it. [ ]: non-standard residue; d: D form. The star is where a group is joined. Bn2Val = CC(C)[C@@H](C(=O)*)N(Cc1ccccc1)Cc1ccccc1; NH(4-Cl-benzyl) = Clc1ccc(CN*)cc1; NMeV = CN[C@H](C(=O)O)C(C)C; dNMeA = CN[C@H](C)C(=O)O

How the values were obtained:
Experiment in all cases: NCI anticancer screen, dose series, 48 h
[1] = system: ACHN renal
[2] = system: COLO 205 colon
[3] = system: DU-145 prostate
[4] = system: EKVX NSCLC
[5] = system: MOLT-4 leukemia
[6] = system: SF-295 CNS
[7] = system: SK-MEL-2 melanoma
[8] = system: SK-MEL-28 melanoma
[9] = system: SN12C renal
[10] = system: HOP-92 NSCLC

Row | SMILES | TGI [1] [µM] | TGI [2] [µM] | TGI [3] [µM] | TGI [4] [µM] | TGI [5] [µM] | TGI [6] [µM] | TGI [7] [µM] | TGI [8] [µM] | TGI [9] [µM] | TGI [10] [µM] | GI50 [1] [µM] | GI50 [3] [µM] | GI50 [4] [µM] | GI50 [10] [µM] | GI50 [7] [µM]
1 | O=c1c(-c2ccccc2)c(SCCO)n(-c2ccccc2)c(=S)n1-c1ccccc1 | > 100 | > 100 | > 100 | > 100 | > 100 | > 100 | > 100 | > 100 | > 100 |  |  |  |  |  | 
2 | O=C1NC(=O)C(C(CC(=O)c2ccc(Cl)cc2)c2ccc(Cl)cc2)C(=O)N1 (stereo not drawn) | > 100 |  | > 100 | > 100 | > 100 | > 100 | > 100 | > 100 | > 100 | > 100 |  |  |  |  | 
3 | COc1ccc(C(=O)CC(c2ccccc2)[C@H]2C(c3ccc(OC)cc3)=Nc3c(nc(SC)n(C)c3=O)NC2c2ccccc2)cc1 (stereo partly drawn) |  | > 100 | > 100 | > 100 | > 100 | > 100 | > 100 | > 100 | > 100 | > 100 |  |  |  |  | 
4 | C=CCC1C(O[Si](C)(C)C(C)(C)C)C(CO[Si](C)(C)C(C)(C)C)OC1n1ccc(=O)[nH]c1=O (stereo not drawn) |  | 3.13 | 4.54 | 2.79 | 2.84 | 3.59 | 4.65 | 3.05 | 2.8 | 2.5 |  |  |  |  | 
5 | C=CCP(=O)(CC=C)C(Cl)Cl | > 100 | > 100 | > 100 |  | > 100 | > 100 | > 100 | > 100 | > 100 | > 100 |  |  |  |  | 
6 | COc1cccc(N[C@@H]2c3cc4c(cc3C(c3cc(OC)c(O)c(OC)c3)[C@H]3C(=O)OCC32)OCO4)c1 (stereo partly drawn) |  | 7.39 |  | 14.9 | 0.164 | 2.5 | 11.2 | > 61.2 |  | 9.33 |  |  |  |  | 
7 | C/C(=N\Nc1nc2ccccc2n1C)c1cc2ccccc2cn1 | 11.8 |  | 8.08 | 5 |  | 5.39 |  | 16.6 | 3.29 | 3.86 |  |  |  |  | 
8 | Cn1c(-c2ccc(/C=N/NC(=S)N/N=C/c3ccc(-c4c[n+]5ccsc5n4C)cc3)cc2)c[n+]2ccsc12 | > 100 | > 100 |  | > 100 | > 100 | > 100 |  | > 100 | > 100 |  |  |  |  |  | 
9 | CC(C)[C@H](NC(=O)[C@H](C(C)C)N(Cc1ccccc1)Cc1ccccc1)C(=O)N(C)[C@H](C(=O)N1CCC[C@H]1C(=O)N(C)[C@H](C)C(=O)NCc1ccc(Cl)cc1)C(C)C (Bn2Val-V[NMeV]P[dNMeA]-{NH(4-Cl-benzyl)}) | 10.1 |  | > 100 | 34 | > 100 | 11.1 | 3.62 | 36.3 | 6.35 | 17.9 |  |  |  |  | 
10 | CN1CC2=C(NC(=S)NC2c2ccccc2)/C(=C/c2ccccc2)C1 (stereo not drawn) | > 100 | > 100 | > 100 | > 100 | 44.7 | > 100 | > 100 | 94.3 | > 100 |  |  |  |  |  | 
11 | C/C(=N\Nc1nc2cc(C(F)(F)F)ccc2s1)c1ccccn1 | 5.84 | 7.01 | 3.98 | 5.55 |  | 5.19 | 4.69 | 5.74 | 1.51 | 8.15 |  |  |  |  | 
12 | COc1cc(C2C(Cl)C(=O)N2c2c(C)n(C)n(-c3ccccc3)c2=O)ccc1O (stereo not drawn) | 34.9 | 34.3 | > 100 | 70.2 | 67 | 50 | 50.4 |  | 37.9 | 74 |  |  |  |  | 
13 | CN(C)Cc1cc(C(=O)/C=C/c2ccccc2)cc(CN(C)C)c1O | > 100 | 31.9 | > 100 | > 100 | 63.7 | 39.6 |  | > 100 | 30.9 | 67.4 |  |  |  |  | 
14 | CC(C)/C(Cl)=N\OC(NC(=O)P(=O)(c1ccccc1)c1ccccc1)(C(F)(F)F)C(F)(F)F | 16.3 | 26.5 | 72 | 63.2 | 39.6 | 79.5 |  | 28.2 | 26.6 | 12.8 |  |  |  |  | 
15 | N#Cc1cc2c(n(C3OC(CO)C(O)C(O)C3O)c1=S)CCCCCC2 (stereo not drawn) | > 100 | > 100 | > 100 |  | > 100 | > 100 | > 100 | > 100 | > 100 | > 100 |  |  |  |  | 
16 | CCOC(=O)Nn1c(CC#N)nnc1Cc1ccccc1 | > 100 |  | > 100 |  | > 100 | > 100 | > 100 | > 100 | > 100 | > 100 |  |  |  |  | 
17 | O=c1oc(C(C(F)(F)F)C(F)(F)F)nc2ccccc12 | > 100 | > 100 |  | > 100 | > 100 | > 100 | > 100 | > 100 |  | > 100 |  |  |  |  | 
18 | CC(C)(C)OC(=O)NCC(CNC(=O)OC(C)(C)C)c1nc(C(N)=O)cs1 | > 100 | > 100 |  | > 100 | > 100 | > 100 | > 100 | > 100 | > 100 | > 100 |  |  |  |  | 
19 | c1ccc(/C(=N/Nc2ccncn2)c2ccccn2)cc1 | 88.1 |  | > 100 | 50.3 | 49.2 | 64.9 | > 100 | > 100 | > 100 |  |  |  |  |  | 
20 | Cc1nc(N)c(N2CCN(CN)CC2)c(=O)[nH]1 | > 100 | > 100 | > 100 | > 100 | > 100 | > 100 | > 100 | > 100 | > 100 |  |  |  |  |  | 
21 | CC1(C)CC2(CC(C)(C)N1O)NC(=O)OC2=O |  | > 100 |  | > 100 | > 100 | > 100 | > 100 | > 100 | > 100 | > 100 |  |  |  |  | 
22 | Cc1ccc(S(=O)CC(CF)OCn2cc(C)c(=O)[nH]c2=O)cc1 (stereo not drawn) | > 100 | > 100 | > 100 |  | > 100 | > 100 | > 100 | > 100 | > 100 | > 100 |  |  |  |  | 
23 | CCN=C1C=CC(=C(c2ccc(N(CC)CC)cc2)c2ccc(N(CC)CC)cc2)c2ccccc21 | 1.07 |  | 1.37 | 1.18 |  |  | 0.383 |  |  | 0.0922 | 0.194 | 0.0492 | 0.0378 | 0.0175 | 0.0768
